What was measured:
stress ulcer = assay: WIS: Restraint and Water Immersion Stress-Induced Ulcer Inhibition Test; assay type: in vivo, rat (male Crj:SD or Slc:SD); details: for WIS: ulcer formation inhibitory rate: 100 mg/kg oral, rats, water immersion stress 7 hours
Procedure: WIS: Restraint and Water Immersion Stress-Induced Ulcer Inhibition Test
The degree of inhibition of the stress ulcer formation is tested.
Male Crj:SD or Slc:SD rats (6 to 7-week-old) were fasted overnight, but allowed free access to water. Each group has 5 to 8 of these rats. The sample compound was dissolved or suspended in an aqueous solution of 0.3% sodium carboxymethylcellulose or 0.05% Tween 80 and then was orally administered (100 mg/10 ml/kg). To a control group, the vehicle was administered. 10 minutes later, the rats were placed in a stress cage and immersed to the level of xipfoid process in a water bath (21° C.) for 7 hours. At the end of the stress, the rats were sacrificed by inhalation of ether or carbon dioxide. Then, the stomach of each was removed, inflated by injecting 10 ml of 5% formalin neutral buffer solution, and immersed in 1% formalin neutral buffer solution for 30 minutes or more to be fixed. The stomach was incised along the greater curvature and then the length of each erosion in the glandular portion was determined under dissecting microscope. The sum of the length of erosions per stomach was defined as ulcer index (UI).
The effect obtained when 100 mg/kg of the sample compound had been administered was expressed as ulcer formation inhibitory rate (%) as follows: [formula] VOL, TAO: Acid Secretion Inhibition Test In Vivo i) Meaning

in vitro = details: rabbit, gastric mucosal cells
Male Slc:ICR mice = system: Male Slc:ICR mice; set-up: species or system mouse (male Slc:ICR); details: mouse, in vivo
Procedure: AT: Single Dose Toxicity Pretest
Male Slc:ICR mice (5-week-old) were used. Each group has 3 to 5 mice and each mouse was fasted, but allowed free access to water, for 4 to 5 hours from 9 a.m. in the test day. Then, 2,000 mg/10 ml/kg of the sample compound dissolved or suspended in an aqueous solution of 0.5% sodium carboxymethyl cellulose was orally administered thereto. To a control, only the vehicle was administered. […] The body weight was measured before and after the fasting as well as at the same time everyday. The dead animals were immediately subjected to autopsy and their organs were observed microscopically. Also, the living animals were sacrificed with ether or carbon dioxide one week after the administration and then their organs were observed microscopically.
The toxicity at the single dose of 2,000 mg/kg of the sample compound was expressed as being classified into 5 levels.
5: Mortality rate is 0%; no toxicity is found at all both in behavior and organs.
4: Mortality rate is 0%; while no toxicity is found in organs, slight toxicity is observed in behavior and body weight increase.
3: While there is a dead animal (though not all the animals are dead), no toxicity is found in organs.
2: Regardless of whether there is a dead animal or not, toxicity is found in organs.
1: All the animals are dead.

[1] = system: isolated gastric fundic gland; assay: CAP: Acid Secretion Inhibition Test In Vitro ([14C]-aminopyrine uptake); assay type: cell-based, rabbit (male Japanese White); details: Oryctolagus cuniculus, 40 min; 10^-5 M compound, 10^-5 M histamine, rabbit isolated gastric fundic gland, 37° C., 40 minutes; read-out: CAP: acid secretion inhibitory rate
Procedure: With respect to the gastric juice volume (VOL) and the total acid output (TAO), the effects obtained when 100 mg/kg of the sample compound had been administered were expressed as their respective inhibitory rates (%) as follows: [formula] CAP: Acid Secretion Inhibition Test In Vitro i) Meaning
The acid secretion inhibitory activity in a cell level is studied. It can also be used for studying the mechanism of the effect.
ii-a) Preparation of isolated gastric fundus gland suspension
First, an isolated gastric fundic gland sample was prepared. […] Immediately thereafter, the stomach was removed and, after its pyloric and cardiac antrum were severed, incised along its greater curvature into two sheets. The gastric contents adhering to the mucosal surface was washed out with ice-cooled PBS (-) and then carefully washed therein. The gastric wall was spread on a cork board with its mucosal surface facing up and the feed and mucus thereon were completely removed with sterile gauze. The mucosa was separated therefrom by a spatula and then collected in ice-cooled PBS (-). After being washed twice with PBS (-), the mucosa was minced into 2-3 mm^3 pieces by scissors. These pieces were further washed twice with a nutrient solution. The nutrient solution comprises 132.4 mM of NaCl, 5.4 mM of KCl, 5 mM of Na2 HPO4.12H2 O, 1 mM of NaH2 PO4.2H2 O, 1.2 mM of MgSO4, 1 mM of CaCl2, 25 mM of HEPES, 2 mg/ml of glucose, and 1 mg/ml of BSA. Into 70 ml of the nutrient solution containing 1 mg/ml of collagenase, minced mucosal pieces were dispersed and intensely stirred in a conical flask with a stirrer at 37° C. for 40 to 60 minutes. During this period, 100% O2 was sprayed on the nutrient solution surface and the pH was appropriately measured such that it was immediately adjusted to pH 7.4, when the value was therebelow, with a base. The nutrient solution was added to the reaction solution so as to attain the total amount of about 200 ml. After being filtered through a mesh, the suspension was divisionally introduced into 50 ml centrifuge tubes and left for 15 minutes such that gastric fundic gland was deposited. The supernatant was repeatedly removed by an aspirator, dispersed in the nutrient solution, and then left such that the gastric fundic gland was washed three times. At this time, without using a pipette, the suspension was alternately introduced into two centrifuge tubes so as to effect dispersion. The number of cells was counted under microscope and adjusted to 1.6×10^6 cells/ml.
ii-b) [^14 C]-aminopyrine uptake test
Then, [^14 C]-aminopyrine uptake test was performed. After an Eppendorf tube was weighed, 10 μl (final concentration: 10^-5 M) of histamine dissolved in the above-mentioned nutrient solution, 10 μl (final concentration: 10^-5 M) of the test compound dissolved in DMSO, and 10 μl (final concentration: 0.05 μCi/ml) of [^14 C]-aminopyrine diluted with the nutrient solution were introduced therein and then 970 μl of the isolated gastric fundic gland suspension prepared above was added thereto. Subsequently, this mixture was shaken at 37° C. for 40 minutes at 125 cycles/minute. After being centrifuged for 30 minutes, 200 μl of its supernatant was collected into a mini-vial, while the rest was removed by an aspirator. The gland pellet was completely dried as the tube with its lid being opened was kept for one night in a drying oven at 80° C. and then the lid was closed and the weight was determined at room temperature. Then 100 μl of 1N KOH was added thereto and the tube with its lid being closed was treated at 60° C. for 1 to 2 hours so as to dissolve the pellet. Then, the contents thereof were transferred to a mini-vial. Into the mini-vial containing the supernatant or gland pellet, 4 ml of Atomlite™ was added and then the radioactivity was measured by a liquid scintillation counter. […]

gastric mucosa = assay: PD: Gastric Mucosal Integrity Test (gastric mucosal potential difference); assay type: in vivo, rat (male Crj:SD); set-up: key: 5: Same as the control with no recognizable damage at all.; 4: Though a slight PD-decreasing tendency suggesting a slight possibility of mucosal damage is found, there is no problem.; 3: Though a weak decrease in PD and a possibility of a weak mucosal damage is recognized, there is no substantial problem.; 2: Medium degree of decrease in PD is found and a mucosal damage is recognized.; 1: Heavy degree of decrease in PD is found and a remarkable mucosal damage is recognized; details: 100 mg/kg into chamber, rats, 60 minutes
Procedure: PD: Gastric Mucosal Integrity Test
In this case, since the sample compound has a necrotizing effect, it is inappropriate as an anti-ulcer medicament.
Therefore, the gastric mucosal potential difference (PD), which reflects the integrity of the gastric mucosa, is measured so as to confirm that the sample compound has no damaging effect on gastric mucosa, which is toxicity at gastric mucosal level.
Male Crj:SD rats (7 to 8-week-old) were fasted overnight, but allowed free access to water, and then, under urethane anesthesia (1.25 g/kg, i.p.), fixed to a cork board on its back. The abdomen of each rat was incised, and a small incision was made in the forestomach. Then, the inside of the stomach was washed with physiological saline heated at 37° C. From the forestomach, along the greater curvature thereof, the stomach was incised without damaging blood vessels. After the height of the cork board was adjusted on a jack, the stomach was mounted on ex vivo chamber. The area of the gastric mucosa exposed to the inside of this chamber was 2.5 cm^2. The inside of the chamber was perfused with physiological saline warmed at 37° C. by micro tube pump. By using an agar bridge containing 3M KCl, the potential difference between the chamber and the abdominal cavity was measured by a PD meter. Here, the rectal temperature was measured to control the body temperature during the experiment. After the PD was sufficiently stabilized, the perfusate was stopped and then 100 mg/10 ml/kg of the sample compound dissolved or suspended in an aqueous solution of 0.5% sodium carboxymethyl cellulose or 0.05% Tween 80 was administered into the chamber, while PD was recorded for 60 minutes. To a control, the vehicle was administered.
The change in PD during 60 minutes after the administration of 100 mg/kg of the sample compound was collectively studied and, with reference to the positive control, classified into 5 levels as follows:
5: Same as the control with no recognizable damage at all.
3: Though a weak decrease in PD and a possibility of a weak mucosal damage is recognized, there is no substantial problem.
2: Medium degree of decrease in PD is found and a mucosal damage is recognized.
1: Heavy degree of decrease in PD is found and a remarkable mucosal damage is recognized.

| Structure (SMILES) | WIS: ulcer formation inhibitory rate (stress ulcer) [%] | anti-ulcer effect (stress ulcer; result in words) | cytotoxicity at 4 h, 100 µM (in vitro) [%] | AT: toxicity at single dose, 5 levels (Male Slc:ICR mice) | inhibition at 10 µM [1] [%] | PD: change in gastric mucosal potential difference, 5 levels (gastric mucosa) | effect (anti-ulcer tests) (stress ulcer; result in words, comparison of examples within compound group 1-1) |
| --- | --- | --- | --- | --- | --- | --- | --- |
| COc1cc(C(=O)NCCN2CCCCC2)cc(OC/C=C(\C)CCC=C(C)C)c1OC [Example 24] | 72 | more anti-ulcer effect | 30 | 5 | – | – | – |
| COc1ccc(OC/C=C(\C)CCC=C(C)C)c(C(=O)NCCN2CCCCC2)c1 [Example 20] | 71 | – | 35 | 3 | – | – | – |
| COc1cc(C(=O)NCCN2CCOCC2)cc(OC/C=C(\C)CCC=C(C)C)c1OC [Example 44] | 61 | – | 22 | 4 | 100 | – | – |
| COc1cc(C(=O)NCCN2CCOCC2)cc(OC)c1OC/C=C(\C)CCC=C(C)C [Example 42] | 69 | – | 0 | 4 | 102 | – | – |
| COc1ccc(C(=O)NCCN2CCCCC2)cc1OC/C=C(\C)CCC=C(C)C [Example 23] | 56 | – | 43 | 3 | – | – | – |
| COc1cc(C(=O)NCCN2CCCCC2)cc(OC)c1OCC=C(C)C [Example 27] | 82 | – | -11 | – | – | 5 | – |
| CC(C)=CCOc1ccc(OCC=C(C)C)c(C(=O)NCCN2CCCCC2)c1 [Example 17] | 70 | – | -16 | 3 | 100 | – | – |
| CC(C)=CCC/C(C)=C/COc1ccc(C(=O)NCCN2CCCCC2)cc1OC/C=C(\C)CCC=C(C)C [Example 11] | 91 | – | 23 | 4 | – | 5 | – |
| CC(C)=CCC/C(C)=C/COc1cc(OC/C=C(\C)CCC=C(C)C)cc(C(=O)NCCN2CCCCC2)c1 [Example 14] | 66 | – | 26 | 3 | – | – | – |
| CC(C)=CCC/C(C)=C/COc1cccc(C(=O)NCCN2CCOCC2)c1 [Example 29] | 63 | – | 16 | 5 | 99 | – | – |
| COc1cc(C(=O)NCCN2CCOCC2)cc(OC)c1OC/C=C(/C)CCC=C(C)C [Example 43] | 41 | – | 10 | 4 | – | 5 | – |
| COc1cc(C(=O)NCCN2CCCCC2)ccc1OC/C=C(\C)CCC=C(C)C [Example 25] | 44 | – | 48 | 3 | – | – | – |
| CC(C)=CCC/C(C)=C\COc1ccc(C(=O)NCCN2CCCCC2)cc1 [Example 2] | 79 | – | – | 3 | – | – | – |
| CC(C)=CCC/C(C)=C/COc1ccc(OC/C=C(\C)CCC=C(C)C)c(C(=O)NCCN2CCCCC2)c1 [Example 13] | 67 | – | -5 | 5 | 100 | – | – |
| CC(C)=CCC/C(C)=C/CC/C(C)=C/COc1ccc(C(=O)NCCN2CCOCC2)cc1 [Example 32] | 55 | – | 58 | 5 | 99 | – | – |
| CC(C)=CCC/C(C)=C/COc1ccc(F)cc1C(=O)NCCN1CCCCC1 [Example 6] | 80 | – | 16 | 3 | – | – | the effect has been maintained |
| CC(C)=CCC/C(C)=C/COc1cccc(C(=O)NCCN2CCCCC2)c1 [Example 4] | 84 | – | – | 3 | – | – | – |

— patent publication US5814634A, “Alkylenediamine derivative anti-ulcer drug and antibacterial drug” (Shiseido Co. Ltd., priority 1996, dated 1998)
